{
  "source": "patent US12433870B2",
  "about": "“Supramolecular photoprotection of a photosensitizer” (Northwestern University, priority 2019, dated 2025)",
  "tested_on": "A2780 cells",
  "assay": "Cellular uptake studies by flow cytometry (MFI)",
  "format": "cell-based, human",
  "conditions": "10 μM, 30 min to 12 h",
  "procedure": "A2780 cells (5×10^5 cells/mL, 200 μL) were seeded in each well of a 48-well plate and treated with 10 μM PBS solution of ExBox^4+⊃DPP for 30 min, 1 h, 2 h, 6 h, and 12 h. Cells were washed with PBS, trypsinized, and incubated with 50 μL of 1:100 Zombie Aqua fixable cell viability dye for 15 min at 4° C. After incubation, cells were washed with 600 μL PBS, spun at 400 ref for 5 min, and the supernatant was discarded. Cells were then suspended in 100 μL of 2% paraformaldehyde prior to being analyzed using a BD Fortessa flow cytometer. Cells were first gated for singlet events using FSC-A vs. FSC-H, after which debris was excluded used FSC-A vs. SSC-A. Cells gated as Zombie Aqua low were considered live cells, which were then analyzed for their median fluorescence intensity (MFI) in the PE-Cy5 channel for ExBox^4+⊃DPP fluorescence, representing the amount of ExBox^4+⊃DPP taken up by each cell.",
  "data": [
    {"smiles": "C1=Cc2nc1cc1ccc([nH]1)c(-c1ccccc1)c1nc(cc3ccc([nH]3)c2-c2ccccc2)C=C1.c1cc2ccc1C[n+]1ccc(cc1)-c1ccc(cc1)-c1cc[n+](cc1)Cc1ccc(cc1)C[n+]1ccc(cc1)-c1ccc(cc1)-c1cc[n+](cc1)C2", "note": "[ExBox^4+⊃DPP]", "values": [
      {"measurement": "uptake and DPP fluorescence signal (MFI)", "value": "time-dependent increase"}
    ]}
  ]
}
